Laboratory results: ChEMBL document CHEMBL6134877, “Innovative Approaches in Psychedelics, AI, and Communication: A Multi-Domain Perspective” (ACS Med Chem Lett, 2025)

Tests used:
Format in all cases: ADME, organism-based
[1] = AUClast in brain of male C57BL6 mouse at 3 mg/kg, po
[2] = Cmax in brain of male C57BL6 mouse at 3 mg/kg, po
[3] = Tmax in plasma of male C57BL6 mouse at 3 mg/kg, po
[4] = AUClast in plasma of male C57BL6 mouse at 3 mg/kg, po
[5] = AUC (infinity) in plasma of male C57BL6 mouse at 3 mg/kg, po
[6] = Tmax in brain of male C57BL6 mouse at 3 mg/kg, po
[7] = Half life in brain of male C57BL6 mouse at 3 mg/kg, po
[8] = Cmax in plasma of male C57BL6 mouse at 3 mg/kg, po
[9] = Half life in plasma of male C57BL6 mouse at 3 mg/kg, po
[10] = AUC (infinity) in brain of male C57BL6 mouse at 3 mg/kg, po

| SMILES | AUC(0-t) [1] [ng·h/mL] | Cmax [2] [ng/mL] | Tmax [3] [h] | AUC(0-t) [4] [ng·h/mL] | AUC(0-inf) [5] [ng·h/mL] | Tmax [6] [h] | half-life [7] [h] | Cmax [8] [ng/mL] | half-life [9] [h] | AUC(0-inf) [10] [ng·h/mL] |
| --- | --- | --- | --- | --- | --- | --- | --- | --- | --- | --- |
| CCCOc1cc(CCN)c(OC)cc1Br | 6480 | 1850 | 0.5 | 284 | 291 | 1 | 1.29 | 130 | 1.44 | 6680 |
| CN(C)CCc1c[nH]c2cccc(O)c12 [PSILOCIN] | 3600 | 1340 |  | 1060 | 1140 | 0.5 | 4.47 | 878 | 1.7 | 4420 |
